The target in experiment [1] is T1, constitutive NO synthase (Rattus norvegicus, UniProt Q62600).
T1 construct: Preparations of isolated rat aorta with endothelium; from tissue; host or cells: isolated thoracic aorta rings with endothelium, Sprague Dawley rat
T1 sequence (Q62600 2-1202 limits assumed): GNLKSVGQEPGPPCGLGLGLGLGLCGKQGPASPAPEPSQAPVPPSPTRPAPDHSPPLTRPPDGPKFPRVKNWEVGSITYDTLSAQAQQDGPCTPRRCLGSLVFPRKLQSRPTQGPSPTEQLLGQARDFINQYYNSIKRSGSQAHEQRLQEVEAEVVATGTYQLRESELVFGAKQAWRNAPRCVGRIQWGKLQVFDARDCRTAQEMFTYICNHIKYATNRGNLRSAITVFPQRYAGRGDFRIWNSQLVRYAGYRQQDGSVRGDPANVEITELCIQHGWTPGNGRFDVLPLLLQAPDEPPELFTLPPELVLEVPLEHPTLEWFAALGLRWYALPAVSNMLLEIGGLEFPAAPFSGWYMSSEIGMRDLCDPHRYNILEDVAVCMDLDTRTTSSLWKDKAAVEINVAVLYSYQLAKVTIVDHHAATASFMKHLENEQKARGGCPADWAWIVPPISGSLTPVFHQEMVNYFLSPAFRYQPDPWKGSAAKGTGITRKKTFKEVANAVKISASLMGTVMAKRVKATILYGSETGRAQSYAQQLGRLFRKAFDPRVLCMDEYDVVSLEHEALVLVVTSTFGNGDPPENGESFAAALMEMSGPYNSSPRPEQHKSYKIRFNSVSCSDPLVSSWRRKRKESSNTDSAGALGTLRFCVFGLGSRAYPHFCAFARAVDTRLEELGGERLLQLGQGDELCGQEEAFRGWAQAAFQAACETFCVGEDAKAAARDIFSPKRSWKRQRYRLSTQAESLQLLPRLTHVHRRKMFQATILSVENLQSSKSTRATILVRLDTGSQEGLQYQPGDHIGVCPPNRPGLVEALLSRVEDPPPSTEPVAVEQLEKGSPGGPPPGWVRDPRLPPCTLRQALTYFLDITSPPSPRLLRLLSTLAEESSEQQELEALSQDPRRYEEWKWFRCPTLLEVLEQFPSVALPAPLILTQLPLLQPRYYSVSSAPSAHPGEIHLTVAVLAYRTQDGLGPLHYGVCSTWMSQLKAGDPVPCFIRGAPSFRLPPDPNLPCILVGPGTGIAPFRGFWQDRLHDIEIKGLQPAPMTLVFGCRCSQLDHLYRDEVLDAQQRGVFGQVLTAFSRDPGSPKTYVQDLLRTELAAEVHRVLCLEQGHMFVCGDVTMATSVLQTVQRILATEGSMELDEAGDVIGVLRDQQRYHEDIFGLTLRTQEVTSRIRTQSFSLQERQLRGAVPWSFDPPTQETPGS
The experiment can be described thus: In vitro effect on constitutive NO synthase in the isolated rat aorta. The class given is cell-based. Particulars: isolated rat aorta with endothelium; reversal of carbachol relaxation; PE 1 μM; read-out: Test on constitutive NO synthase IC50. As for the experimental part: 1-In vitro effect on constitutive NO synthase in the isolated rat aorta;
Preparations of isolated rat aorta with endothelium were prepared as previously described (M. Auguet, S. Delaflotte, P. E. Chabrier and P. Braquet--Comparative effects of endothelium and phorbol 12-13 dibutyrate in rat aorta, Life Sciences, 1989, 45, 2051-2059).
Male Sprague Dawley rats (270-360 g, Charles River, Paris) were sacrificed by cervical dislocation and the thoracic aorta removed and cleaned of the surrounding tissue. Rings 2 mm wide were suspended in organ baths containing 10 ml of physiological solution (for composition, see below) under a tension of 2 g at 37° C. and gassed with O2 /CO2 (95%/5%). Contractile responses were measured, using force displacement transducers (Slatham UC2) coupled to a Gould 8000 S polygraph. An equilibration period of one hour was allowed before experimentation. Normal physiological solution was composed of (mM): NaCl, 118; KCl, 4.7; CaCl2, 2.5; KH2 PO4, 1.2; MgSO4, 0.6; NaHCO3, 25; glucose, 11. After equilibration in normal medium, the preparation was subjected to a near maximal dose (about 95%) of phenylephrine (PE, 1 μM). When the contraction was stable, carbachol (10 μM) was tested in order to evaluate the presence or absence of endothelium. […]

The subject of experiment [2] is neuronal death after focal cerebral ischemia. As to the kind of experiment: In vivo effect on neuronal death after focal cerebral ischemia in mice. Particulars: 3 mg/kg ip, 5 hours after middle cerebral artery occlusion; mean of six animals. As for the experimental part: 9-In vivo effect on neuronal death after focal cerebral ischemia in mice:
Systemic intraperitoneal (ip) administration of the compounds was carried out 5 hours after cortical infarction induced by the occlusion of the middle cerebral artery in male Swiss mice (20-22 g), according to Duverger et al.--Pharmacology of cerebral ischemia in Krieglstein and Oberpichler, Wissenschaftliche Verlagsgesellschaft, Stuttgart, 1990, 409-413. Four days later, the mice were decapitated and their brains removed and frozen to be then sectioned in coronal slices of […] thickness. Area infarction was measured by image analysis. Reduction of infarcted volume was measured and compared with non treated animal. The percentage indicated the mean reduction of infarct from six animals per group--MK 801, a NMDA antagonist was used as a control substance.

The test system of experiment [3] is J774 A1 monocyte/macrophage cell line. The experiment can be described thus: In vitro effect on nitrite production induced by LPS+INFγ on J774 A1 monocyte/macrophage cell line. The experiment is classed as cell-based, murine. The text has this:
5-In vitro effect on nitrite production induced by LPS+INFγ on J774 A1 monocyte/macrophage cell line:
Macrophage type cells like J774 A1 cell line are interesting to use since they are important cells in inflammation and express large amount of NO (due to the induction of NO synthase) and cyclooxygenase products. They are activated with lipopolysaccharide (LPS) in presence of interferon γ (INFγ). This assay was used to compare the effects of compounds of the invention with the association of their separated parent compounds.
Murine monocyte/macrophage cells were grown in Dubecco's modified Eagle's medium at 37° C. The cells were plated in 24 well culture plate (NUNC) and were used for experiments at about 2×10^5 cells/plate. The cells were activated with LPS (1 μg/ml) from E. Coli (SO55:B5) and murine recombinant IFNγ (50 U/ml) and then incubated in the presence or absence of the compounds. After 48 h nitrite (NO2 -) levels, which correlate with the activation of NO synthase, were assessed in the culture media by the colorimetric method according to Green et al (L. Green, D. Wagner, J. Glogowski, P. Skipper, J. Wishwok and S. Tannenbaum, Analysis of nitrate, nitrite and [15N] nitrate in biological fluids. Analytical Biochemistry 126, 131-138, 1982).

Experiment [4] deals with T2, cyclooxygenase (Mus musculus, UniProt Q05769).
T2 construct: main cyclooxygenase products produced by J774A1 cell line; endogenous in cells
T2 sequence (Q05769 18-604): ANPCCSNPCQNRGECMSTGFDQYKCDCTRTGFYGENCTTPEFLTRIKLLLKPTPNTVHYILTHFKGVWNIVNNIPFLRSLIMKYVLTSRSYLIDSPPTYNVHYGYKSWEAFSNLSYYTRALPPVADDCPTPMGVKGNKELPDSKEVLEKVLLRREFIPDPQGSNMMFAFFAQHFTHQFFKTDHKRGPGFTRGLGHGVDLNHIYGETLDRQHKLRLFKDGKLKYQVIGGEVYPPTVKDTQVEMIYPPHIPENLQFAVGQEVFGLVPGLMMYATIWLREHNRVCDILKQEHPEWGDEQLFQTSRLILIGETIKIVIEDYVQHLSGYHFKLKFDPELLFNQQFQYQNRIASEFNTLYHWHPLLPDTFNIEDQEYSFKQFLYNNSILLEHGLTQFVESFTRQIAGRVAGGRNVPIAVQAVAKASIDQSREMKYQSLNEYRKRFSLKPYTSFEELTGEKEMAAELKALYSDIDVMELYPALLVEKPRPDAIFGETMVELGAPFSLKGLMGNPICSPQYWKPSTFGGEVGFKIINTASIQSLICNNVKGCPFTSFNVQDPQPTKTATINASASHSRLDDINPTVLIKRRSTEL
As to the kind of experiment: In vitro effect on prostaglandin (6 keto PGF1α) production induced by LPS+IFNγ on J774A1 monocyte/macrophage cell line. The experiment is classed as cell-based, murine. The settings on record: for effect on release of 6 keto PGF1α: LPS+IFNγ, J774A1 culture media. As for the experimental part:
6-In vitro effect on prostaglandin production induced by LPS+IFNγ on J774A1 monocyte/macrophage cell line:
Levels of one of the main cyclooxygenase products produced by J774A1 cell line (i.e.: 6 keto PGF1α) the stable metabolite of PGI2 were assessed in the culture media by a specific radioimmunoassay (NEN, Kit NEK 025).

In experiment [5] the test system is vascular reactivity to methoxamine. The experiment can be described thus: In vivo effect on endotoxin treated pithed rat. The settings on record: dose 30 mg/kg/h; endotoxin 300 μg/kg/h; control 79 ± 9, EDTX 278 ± 34. The procedure:
10-In vivo effect on endotoxin treated pithed rat:
As previously reported, the association of an inhibitor of NO synthase and an inhibitor of cyclooxygenase has a synergistic effect to restore the blood pressure and vascular reactivity in an endotoxinic or septic animal.
Male Sprague Dawley rats (body weight 280-320 g) were pithed. One hour after pithing, animals were given endotoxin (EDTX, Escherichia Coli, lipopolysaccharide, O III, B4 =300 μg/kg/h) for 60 minutes. […]

The target of experiment [6] is T3, inducible NO synthase (Rattus norvegicus, UniProt Q06518).
T3 construct: the compounds were tested on isolated rat aorta from shocked animal; from tissue; host or cells: thoracic aorta rings, endothelium removed, from endotoxin-treated Sprague Dawley rats
The experiment can be described thus: In vitro effect on inducible NO synthase in the isolated rat aorta from endotoxin-shocked animal. The settings on record: aorta from endotoxin-treated rats, endothelium disrupted; PE 1 μM; read-out: Test on inducible NO synthase IC50. The class given is cell-based.

This note sets out measurements from patent US5360925A, “Dual inhibitors of no synthase and cyclooxygenase, process for their preparation and therapeutical compositions containing them” (priority 1992, dated 1994).

Each structure is given as a SMILES string.

`CNC(=N)NCCCC(N)C(=O)O.Cc1cccc(Nc2ccccc2C(=O)O)c1C` [Example 12]: the IC50 (as a rule, the concentration at which inhibition is half-maximal) in experiment [1] worked out at 10 µM.
Turning to `C[C@]12N[C@H](Cc3ccccc31)c1ccccc12` [MK 801, reference compound], the Reduction of infarct in experiment [2] is listed as -51%.
On to `NC(=N[N+](=O)[O-])NCCC[C@H](N)C(=O)O` [L-NO, N-ω-nitro-L-Arginine, reference compound], for which the IC50 in experiment [3] (Mus musculus, J774.A1, activated cells, LPS 1 μg/ml + IFNγ 50 U/ml, 48 h) was determined as 15 µM. Moreover, the “effect on release of 6 keto PGF1α” value in experiment [4] is on record as “not affected”.
As to `CNC(=N)NCCC[C@H](N)C(=O)O.O=C(O)c1ccccc1O` [Example 2], the “% OF INHIBITION of nitrite production” value is listed as 75.5% in experiment [3] (10^-4 M, LPS+INF, J774); 61% in experiment [3] (10^-5 M, LPS+INF, J774); 53% in experiment [3] (10^-6 M, LPS+INF, J774). The Reduction of infarct in experiment [2] is recorded as -55%. For the same molecule, the “vascular reactivity to methoxamine DE50” value in experiment [5] was determined as 98 ± 35 µg/kg.
Regarding `COC(=O)[C@H](CCCNC(N)=N[N+](=O)[O-])NC(=O)c1ccccc1OC(C)=O` [Example 16], the IC50 was found to be 9 µM in experiment [1] and 4 µM in experiment [6].
For `CC1=C(CC(=O)O)c2cc(F)ccc2/C1=C\c1ccc([S+](C)[O-])cc1.N=C(NCCC[C@H](N)C(=O)O)N[N+](=O)[O-]` (stereo not shown) [Example 13], the “% OF INHIBITION of nitrite production” value came to 71% in experiment [3] (10^-4 M, LPS+INF, J774); 63% in experiment [3] (10^-5 M, LPS+INF, J774); 56% in experiment [3] (10^-6 M, LPS+INF, J774).
As to `COC(=O)C(CCCNC(=N)N[N+](=O)[O-])NC(=O)CC1=C(C)C(=Cc2ccc([S+](C)[O-])cc2)c2ccc(F)cc21` (stereo not shown) [Example 17], the inhibition (as a rule, the change of the read-out against control, counted positive when it falls) at 100 µM was 73% in experiment [3] (Mus musculus, J774.A1, 10^-4 M, LPS+INF, J774) and 92% in experiment [4] (J774.A1, 10^-4 M, LPS+INF, J774A1, read-out: % OF INHIBITION of 6-keto PG F1 production). For the same molecule, the inhibition at 10 µM in experiment [3] (Mus musculus, J774.A1, 10^-5 M, LPS+INF, J774) came out at 57%; in experiment [4] (J774.A1, 10^-5 M, LPS+INF, J774A1, read-out: % OF INHIBITION of 6-keto PG F1 production), 83%. Moreover, the inhibition at 1 µM in experiment [3] (Mus musculus, J774.A1, 10^-6 M, LPS+INF, J774) was determined as 49%; in experiment [4] (J774.A1, 10^-6 M, LPS+INF, J774A1, read-out: % OF INHIBITION of 6-keto PG F1 production) it was 74%. For the same molecule, the Reduction of infarct in experiment [2] is reported as -69%.
As to `COC(=O)[C@@H](N)CCCNC(N)=N[N+](=O)[O-]` [L-NAME, N-ω-nitro-L-Arginine methyl ester, reference compound], the “effect on release of 6 keto PGF1α” value in experiment [4] is “not affected”.
